Counter-ions that a name gives are not always drawn.

The target in the first assay is SARS-CoV-2 Mac1 (Severe acute respiratory syndrome coronavirus 2, UniProt P0DTD1). The assay can be described thus: biochemical. The conditions noted are these: 100 µM; inhibitor.
Broadly, the %inhibition is how much of the control response was suppressed. For `COc1ccc(C[C@@H]2c3cc(OC)c(OC)cc3CC[N@+]2(C)CCC(=O)OCCCCCOC(=O)CC[N@@+]2(C)CCc3cc(OC)c(OC)cc3[C@H]2Cc2ccc(OC)c(OC)c2)cc1OC` [Cisatracurium Besylate], the “%inhibition” value is 1.897%.
In the case of `Cc1cc(C)nc(NS(=O)(=O)c2ccc(N)cc2)n1` [Sulfamethazine Sodium Salt], the “%inhibition” value is 12.6%.
Take `CN1CCc2nc(C(=O)N[C@@H]3C[C@@H](C(=O)N(C)C)CC[C@@H]3NC(=O)C(=O)Nc3ccc(Cl)cn3)sc2C1` [Edoxaban]: the “%inhibition” value amounted to 4.891%.
As to `CCC[C@@H]1C[C@@H](C(=O)N[C@@H]([C@H]2O[C@H](SC)[C@H](O)[C@@H](O)[C@H]2O)[C@@H](C)O)N(C)C1` [Lincomycin HCl], the “%inhibition” value worked out at 0%.
Take `Nc1ccn([C@@H]2O[C@H](CO)[C@@H](O)C2(F)F)c(=O)n1` [Gemcitabine]: the “%inhibition” value is 32.55%.
For the molecule `CC1(C)S[C@@H]2[C@H](NC(=O)[C@H](N)c3ccc(O)cc3)C(=O)N2[C@H]1C(=O)O` [Amoxicillin trihydrate], the “%inhibition” value worked out at 5.69%.
Regarding `CNC(=O)c1cc(Oc2ccc(NC(=O)Nc3ccc(Cl)c(C(F)(F)F)c3)c(F)c2)ccn1` [Regorafenib (BAY 73-4506)], the “%inhibition” value was found to be 2.978%.
On the same count and under the same terms, with `COc1cc2nccc(Oc3ccc(NC(=O)C4(C(=O)Nc5ccc(F)cc5)CC4)cc3)c2cc1OC` [Cabozantinib (XL184, BMS-907351)] the figure was 25.14%.
Turning to `NC[C@H]1O[C@H](O[C@H]2[C@H](O)[C@@H](O[C@H]3O[C@H](CO)[C@@H](O)[C@H](N)[C@H]3O)[C@H](N)C[C@@H]2N)[C@H](N)C[C@@H]1O` [Tobramycin], the “%inhibition” value is reported as 0%.
On to `O=C(O)Cc1ccccc1Nc1c(Cl)cccc1Cl` [Diclofenac Diethylamine], for which the “%inhibition” value was found to be 0%.

Still in this assay, the particulars now being: read-out: %inhibition.
Usually inhibition stands for the change of the read-out against control, counted positive when it falls. For the molecule `Cc1cc(Nc2ncc(Cl)c(Nc3ccccc3S(=O)(=O)C(C)C)n2)c(OC(C)C)cc1C1CCNCC1` [Ceritinib (LDK378)], the inhibition at 100 µM is 0%.
Same read-out and setting: with `CO[C@H]1O[C@H](COS(=O)(=O)O)[C@@H](O[C@@H]2O[C@@H](C(=O)O)[C@@H](O[C@H]3O[C@H](COS(=O)(=O)O)[C@@H](O[C@@H]4O[C@H](C(=O)O)[C@@H](O[C@H]5O[C@H](COS(=O)(=O)O)[C@@H](O)[C@H](O)[C@H]5NS(=O)(=O)O)[C@H](O)[C@H]4O)[C@H](OS(=O)(=O)O)[C@H]3NS(=O)(=O)O)[C@H](O)[C@H]2OS(=O)(=O)O)[C@H](O)[C@H]1NS(=O)(=O)O` [Fondaparinux Sodium] the figure was 0%.
With `CO/N=C(\C(=O)N[C@@H]1C(=O)N2C(C(=O)[O-])=C(C[n+]3cccc4c3CCC4)CS[C@H]12)c1csc(N)n1` [Cefpirome sulfate], the inhibition at 100 µM was determined as 0%.
On to `Cc1ccc(-n2nc(C(C)(C)C)cc2NC(=O)Nc2ccc(OCCN3CCOCC3)c3ccccc23)cc1` [Doramapimod (BIRB 796)], for which the inhibition at 100 µM came to 0%.
Same read-out and setting: the figure for `CC(C)[C@H](N)C(=O)OCC(CO)OCn1cnc2c(=O)nc(N)[nH]c21` (stereo partly drawn) [Valganciclovir HCl] is 0%; for `CS(=O)(=O)Nc1ccc([N+](=O)[O-])cc1Oc1ccccc1` [Nimesulide] it is 0%; for `CNC(=O)c1ccc(Nc2ncc(C(F)(F)F)c(NCc3nccnc3N(C)S(C)(=O)=O)n2)cc1` [Defactinib (VS-6063, PF-04554878)] it is 0%.
Same read-out and setting: with `COc1cc(Nc2c(C#N)cnc3cc(OCCCN4CCN(C)CC4)c(OC)cc23)c(Cl)cc1Cl` [Bosutinib (SKI-606)] the figure was 55.6%.
For the molecule `Cc1ccc(=O)n(-c2ccccc2)c1` [Pirfenidone], the inhibition at 100 µM was determined as 15.4%.
On to `CC(=O)NS(=O)(=O)c1ccc(NC(=O)c2ccccc2C(=O)O)cc1` [Phthalylsulfacetamide], for which the inhibition at 100 µM is 6.67%.
On the same count and under the same terms, the figure for `O=C(N/N=C/c1ccc([N+](=O)[O-])o1)c1ccc(O)cc1` [Nifuroxazide] is 0.953%.
Consider `CC(C)NC[C@H](O)COc1ccc(CCOCC2CC2)cc1` [Levobetaxolol HCl], for which the inhibition at 100 µM is 12.1%.
With `COc1cc(C(=O)NCc2ccc(OCCN(C)C)cc2)cc(OC)c1OC` [Tribenzagan Hydrochloride], the inhibition at 100 µM turned out to be 0%.
Take `Cc1ccc(/C(=C\CN2CCCC2)c2ccccn2)cc1` [Triprolidine Hydrochloride]: the inhibition at 100 µM was determined as 2.14%.
On to `O=C(NS(=O)(=O)c1ccc(Br)s1)c1ccc(Cl)cc1Cl` [Tasisulam], for which the inhibition at 100 µM is 0%.
For the molecule `O=C1/C(=C2\Nc3ccccc3C2=O)Nc2ccccc21` [Indigo], the inhibition at 100 µM was found to be 9.76%.
Same read-out and setting: the figure for `C[C@H](CS)C(=O)N1CCC[C@H]1C(=O)O` [Captopril] is 0%; for `CC(=O)OC(C)C[N+](C)(C)C` (stereo not drawn) [Methacholine chloride] it is 8.52%; for `C[N+]1(C)CCC(=C(c2ccccc2)c2ccccc2)CC1` [Diphemanil Methylsulfate] it is 0%.
On to `Cc1ccccc1C(=O)Nc1ccc(C(=O)N2CCCC(O)c3cc(Cl)ccc32)c(C)c1` (stereo not drawn) [Tolvaptan], for which the inhibition at 100 µM is 10.6%.
For the molecule `CC(=O)OCC(=O)[C@@]1(O)[C@H](C)C[C@H]2[C@@H]3CCC4=CC(=O)C=C[C@]4(C)[C@@]3(F)[C@@H](O)C[C@@]21C` [Dexamethasone Acetate], the inhibition at 100 µM is 0%.
Consider `CC(C)(C)C(=O)OCOP(=O)(COCCn1cnc2c(N)ncnc21)OCOC(=O)C(C)(C)C` [Adefovir Dipivoxil], for which the inhibition at 100 µM turned out to be 37.1%.
On to `Cc1ccc(N(CC2=NCCN2)c2cccc(O)c2)cc1` [Phentolamine Mesylate], for which the inhibition at 100 µM amounted to 0%.
With `O=C(O)c1ccccc1Nc1cccc(C(F)(F)F)c1` [Flufenamic acid], the inhibition at 100 µM came out at 3.41%.
Take `CNC(=C[N+](=O)[O-])NCCSCc1ccc(CN(C)C)o1` [Ranitidine Hydrochloride]: the inhibition at 100 µM was 10.7%.
On the same count and under the same terms, with `C=C[C@H]1CN2CC[C@H]1C[C@@H]2[C@@H](O)c1ccnc2ccc(OC)cc12` [Quinidine sulfate] the figure was 0%; with `Nc1nc(Cl)nc2c1ncn2[C@@H]1O[C@H](CO)[C@@H](O)[C@@H]1F` [Clofarabine], 44.7%; with `Cc1[nH]c(=O)c(C#N)cc1-c1ccncc1` [Milrinone], 0%.
On the same count and under the same terms, with `NC[C@H](O)c1ccc(O)c(O)c1` [Noradrenaline bitartrate monohydrate] the figure was 18.9%.
Consider `COc1cc(Nc2ncc3c(n2)-c2ccc(Cl)cc2C(c2c(F)cccc2OC)=NC3)ccc1C(=O)O` [Alisertib (MLN8237)], for which the inhibition at 100 µM turned out to be 8.76%.
On the same count and under the same terms, with `CC(C)(Oc1ccc(CCNC(=O)c2ccc(Cl)cc2)cc1)C(=O)O` [Bezafibrate] the figure was 9.85%; with `CNNCc1ccc(C(=O)NC(C)C)cc1` [Procarbazine HCl], 0%.
In the case of `COC(=O)N/N=C/c1c[n+]([O-])c2ccccc2[n+]1[O-]` [Carbadox], the inhibition at 100 µM is 6.86%.
On to `COc1ccc(CN2CCN(C(c3ccc(F)cc3)c3ccc(F)cc3)CC2)c(OC)c1OC` [Lomerizine 2HCl], for which the inhibition at 100 µM was 12.8%.
In the case of `COc1cc2c(cc1OC)CC(=O)N(CCCN(C)C[C@H]1Cc3cc(OC)c(OC)cc31)CC2` [Ivabradine HCl], the inhibition at 100 µM turned out to be 0%.

The values are drawn from doi:10.1101/2021.10.07.463234v2 (biorxiv, 2021).
